What all share (format): cell-based
Experiment [1] addresses T1, CRAC channel (Orai I / STIM I) (Homo sapiens, UniProt Q13586).
T1 construct: expressed in transfected cells; host or cells: HEK293
Briefly: Whole cell CRAC current (Icrac) in HEK293 cells expressing Orai I and YFP-STIM I. To be noted: whole cell clamp. As to the method:
Analysis was performed in HEK293 cells stably expressing Orai I and transfected with STIM I YFP used conventional whole cell voltage recordings as described (see, Wang Y, Deng X, Zhou Y, Hendron E, Mancarelia S, Ritchie M F. Tang X D, Baba Y, Kurosaki T, Mori Y, Soboloff J, Gill D L., “STIM protein coupling in the activation of Orai channels”, Proc Natl Acad Sci USA Vol. 106, pages 7391-7396, 2009). Immediately after establishment of the whole-cell electrode seal, voltage ramps spanning from—100 to +100 mV in 50 msec were delivered from a holding potential of 0 mV at a rate of 0.5 Hz. A 10 mV junction potential compensation was applied. […]
The haloanilide DCPA blocks store-operated Ca^2+ channel function in Jurkat cells with no effect on ER Ca^2+ content. […] To address this, the present inventor examined HEK293 cells stably expressing Orai I and transiently transfected with YFP-STIMI and measured the effect of DCPA on CRAC current or Icrac. CRAC channel activity was measured in the whole cell clamp position after passively depleting Ca^2+ stores via the presence of 10 mM EGTA in the patch pipette. […]

The subject of experiment [2] is human monocytes differentiating into osteoclasts. Kind of experiment: Human osteoclast differentiation in vitro (multinucleation, TRAP). To be noted: 8 days after RANKL. The protocol:
Human monocytes were isolated from normal buffy coat cells (60-80 ml) obtained with approval of institutional review boards by separation from donor blood, the white-cell depleted blood retained for clinical use. Human monocyte culture and differentiation were as reported (see, Yaroslayskly B B, Zhang Y, Kalla S E, Garcia P V, Sharrow A C, Li Y, Zaidi M, Wu C, Blair H C, “NO-dependent osteoclast motility: Reliance on cGMP-dependent protein kinase I and VASP”, J Cell Sci I, Vol. 18, pages 5479-5487, 2005). Briefly, human monocytes cells were isolated from buffy coat on ficoll lymphocyte separation media and cultured at ˜6×10^5 cells per cm^2 in monocyte maintenance medium, Dulbecco's modified essential medium (DMEM) with 20 ng/ml of human m-CSF and 10% FBS, for 24 hours (h). After 24 h in culture, the medium was changed to osteoclast differentiation medium containing in addition of human 50 ng/ml of RANKL, with the additional inhibitors or activators as specified in results. Human osteoclast cultures were generally maintained for a minimum of 7 days before analysis, or longer times as specified in results.
The effect of DCPA on human osteoclast differentiation 8 days after addition of RANKL was evaluated.

In experiment [3] the target is T2, STIM I (Homo sapiens, UniProt Q13586).
T2 construct: expressed in transfected cells; host or cells: HEK293
Kind of experiment: STIM I puncta formation in HEK293 cells transfected with YFP-STIM I. To be noted: 2 μM thapsigargin, 16 minute period. The protocol:
HEK293 cells, maintained in DMEM with 10% FBS, were transfected with YFP-STIM I using Lipofectamine 2000 (Invitrogen, Carlsbad, Calif.) for 5 h (37° C.; 5% CO2) followed by a 24-h recovery. Cells were placed in 140 mM NaCl, 5 mM KCl, 1 mM MgCl2, 10 mM glucose, 15 mM HEPES, 0.1% BSA, 2 mM CaCl2 and analyzed by confocal microscopy for STIM I puncta formation using a Nikon phase-fluorescence microscope with CCD detectors (Diagnostic instruments, Sterling Heights, Mich.). Phase or transmitted light microscopy used 10-40× objectives and red, green, and blue filters to assemble color images. Fluorescence images used 1.4 NA 40× oil objectives. Red fluorescence used excitation at 530-560 nm, a 575 nm dichroic minor, and 580-650 nm emission filter. Transfection data were analyzed using Nikon NIS Elements Imaging Software. The effect of DCPA on STIM I/Orai I association was determined in wild-type HEK293 cells transfected with STIM I-YFP as described in Wang Y, Deng X, Zhou Y, Hendron E, Mancarelia S, Ritchie M F, Tang X D, Baba Y, Kurosaki T, Mori Y, Soboloff J, Gill DL, “STIM protein coupling in the activation of Orai channels”, Proc Natl Acad Sci USA, Vol. 106, pages 7391-7396, 2009. Experiments were performed on a Leica DMI 6000B fluorescence microscope controlled by Slidebook Software (Intelligent Imaging Innovations, Denver, Colo.). […]

In experiment [4] the target is T3, STIM I/Orai I interaction (Homo sapiens, UniProt Q13586).
T3 construct: the cytosolic fragment of STIM I (STIM 1 ct); expressed in transfected cells
Kind of experiment: 2-APB-induced STIM I ct translocation to plasma membrane. To be noted: DCPA 100 μM, 2-APB 50 μM.

Structures are written as SMILES.

T1 sequence (Q13586 23-685): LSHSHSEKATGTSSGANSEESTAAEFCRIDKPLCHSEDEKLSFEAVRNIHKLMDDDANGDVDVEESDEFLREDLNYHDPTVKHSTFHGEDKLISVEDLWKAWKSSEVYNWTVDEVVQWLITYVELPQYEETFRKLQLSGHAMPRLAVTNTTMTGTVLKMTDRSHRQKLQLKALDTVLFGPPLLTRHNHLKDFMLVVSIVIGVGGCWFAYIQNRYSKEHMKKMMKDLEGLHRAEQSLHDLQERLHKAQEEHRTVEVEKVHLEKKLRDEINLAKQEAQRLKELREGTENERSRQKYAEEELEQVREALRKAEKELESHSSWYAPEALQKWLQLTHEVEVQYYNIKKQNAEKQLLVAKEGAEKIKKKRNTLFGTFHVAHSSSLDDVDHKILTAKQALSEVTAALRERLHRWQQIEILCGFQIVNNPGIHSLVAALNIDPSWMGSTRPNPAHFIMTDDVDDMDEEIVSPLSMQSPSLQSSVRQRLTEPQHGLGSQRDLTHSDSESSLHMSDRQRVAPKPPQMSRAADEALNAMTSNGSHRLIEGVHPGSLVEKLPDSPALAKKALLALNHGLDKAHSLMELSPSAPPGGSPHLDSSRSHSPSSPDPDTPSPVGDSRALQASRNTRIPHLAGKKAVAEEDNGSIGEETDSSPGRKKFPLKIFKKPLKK
T2 sequence (Q13586 23-685): as above
T3 sequence (Q13586 235-685 limits assumed): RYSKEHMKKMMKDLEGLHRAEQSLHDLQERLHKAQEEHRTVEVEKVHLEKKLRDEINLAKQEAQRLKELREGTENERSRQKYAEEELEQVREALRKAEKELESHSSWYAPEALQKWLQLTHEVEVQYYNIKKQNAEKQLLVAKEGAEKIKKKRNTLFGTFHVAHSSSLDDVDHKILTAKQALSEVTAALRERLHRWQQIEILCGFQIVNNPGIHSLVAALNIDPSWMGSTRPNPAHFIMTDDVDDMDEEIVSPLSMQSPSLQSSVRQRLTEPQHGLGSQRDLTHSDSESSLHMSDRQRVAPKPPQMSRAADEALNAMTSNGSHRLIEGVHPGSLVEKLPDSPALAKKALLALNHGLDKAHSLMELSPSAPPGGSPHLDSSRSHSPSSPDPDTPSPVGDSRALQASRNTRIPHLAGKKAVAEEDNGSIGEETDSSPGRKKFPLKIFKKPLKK

On to `CCC(=O)Nc1ccc(Cl)c(Cl)c1` [DCPA, N-(3,4-dichlorophenyl)propanamide], for which the “current-voltage relationship versus control cells” value in experiment [1] is on record as “did not show significant differences”. In experiment [1] (10 mM EGTA in pipette), the “time for CRAC current to return to baseline after break-in” value was “less than 4 minutes”. In addition, in experiment [2] (1.0 μM), the “number of multinucleated TRAP+ cells” value is listed as “minimal effect”. In experiment [2] (10 and 100 μM), the “number of multinucleated cells” value was “marked progressive reduction”. Further, the TRAP activity entry in experiment [2] (up to highest concentration (100 μM)) is “no differences”. In experiment [3], the “STIM I puncta formation after store depletion” value is given as “dramatically inhibited”. The “ability of 2-APB to induce STIM I ct translocation to the plasma membrane” value in experiment [4] is listed as “dramatically attenuated”.

For the origin of these results see patent US10682320B2, “Method for inhibiting osteoclast development” (West Virginia University, priority 2012, dated 2020).
